Test results reported in US20240083903A1, “ARYL ETHER COMPOUNDS AS TEAD MODULATORS” (Merck Sharp& Dohme LLC, priority 2021, published 2024).

Tested on: TEAD Reporter-MCF7 cell line
Assay: YAP/TEAD cellular activity assay: inhibition of TEAD-Luc activity in TEAD Reporter-MCF7 cell line
Assay type: cell-based, human
Conditions: TEAD Reporter-MCF7 cells, 24 hours incubation with compound, luciferase readout
In short: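 MCF7 cells stably carrying a TEAD-responsive firefly luciferase reporter were seeded at 10,000 cells/well, grown 20-24 h, then exposed to compounds for 24 h at 37° C. Luciferase read by ONE-Glo EX luminescence; percent inhibition and EC50 derived.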

SMILES	EC50 (Homo sapiens, MCF7, 24 h)	EC50
CNS(=O)(=O)c1ccc(Oc2ccc(OC(F)(F)F)cc2)c(-c2cnn3c2CCC3)c1 [3-4, 3-(5,6-dihydro-4H-pyrrolo[1,2-b]pyrazol-3-yl)-N-methyl-4-[4-(trifluoromethoxy)phenoxy]benzene-1-sulfonamide]	618 nM	–
CNS(=O)(=O)c1ccc(Oc2cccc(OC(F)(F)F)c2)c(-c2cnn3c2CCC3)c1 [3-5, 3-(5,6-dihydro-4H-pyrrolo[1,2-b]pyrazol-3-yl)-N-methyl-4-[3-(trifluoromethoxy)phenoxy]benzene-1-sulfonamide]	3090 nM	–
CNS(=O)(=O)c1ccc(Oc2ccc(CC(F)(F)F)cc2)c(-c2cnn3c2CCC3)c1 [3-6, 3-(5,6-dihydro-4H-pyrrolo[1,2-b]pyrazol-3-yl)-N-methyl-4-[4-(2,2,2-trifluoroethyl)phenoxy]benzene-1-sulfonamide]	508 nM	–
CNS(=O)(=O)c1ccc(O[C@H]2CC[C@H](C(F)(F)F)CC2)c(-c2cn3c(n2)CCC3)c1 [4-1, 3-(6,7-Dihydro-5H-pyrrolo[1,2-a]imidazol-2-yl)-N-methyl-4-(((1r,4r)-4-(trifluoromethyl)cyclohexyl)oxy)benzenesulfonamide]	52.6 nM	–
CNS(=O)(=O)c1ccc(Oc2ccc(C(F)(F)F)nc2)c(-c2cn3c(n2)CCC3)c1 [4-2, 3-(6,7-dihydro-5H-pyrrolo[1,2-a]imidazol-2-yl)-N-methyl-4-((6-(trifluoromethyl)pyridin-3-yl)oxy)benzenesulfonamide]	261 nM	–
CNS(=O)(=O)c1ccc(Oc2ccc(C(C)(C)C)cc2)c(-c2cn3c(n2)CCC3)c1 [4-3, 4-(4-tert-butylphenoxy)-3-(6,7-dihydro-5H-pyrrolo[1,2-a]imidazol-2-yl)-N-methylbenzene-1-sulfonamide]	5.7 nM	–
CNS(=O)(=O)c1ccc(Oc2ccc3c(c2)CCC3)c(-c2cn3c(n2)CCC3)c1 [4-4, 4-[(2,3-dihydro-1H-inden-5-yl)oxy]-3-(6,7-dihydro-5H-pyrrolo[1,2-a]imidazol-2-yl)-N-methylbenzene-1-sulfonamide]	32.3 nM	–
CNS(=O)(=O)c1ccc(Oc2cccc(Cl)c2)c(-c2cn3c(n2)CCC3)c1 [4-5, 4-(3-chlorophenoxy)-3-(6,7-dihydro-5H-pyrrolo[1,2-a]imidazol-2-yl)-N-methylbenzene-1-sulfonamide]	103 nM	–
CNS(=O)(=O)c1ccc(Oc2cccc(F)c2)c(-c2cn3c(n2)CCC3)c1 [4-6, 3-(6,7-dihydro-5H-pyrrolo [1,2-a]imidazol-2-yl)-4-(3-fluorophenoxy)-N-methylbenzene-1-sulfonamide]	146 nM	–
CNS(=O)(=O)c1ccc(Oc2ccc(C)cc2)c(-c2cn3c(n2)CCC3)c1 [4-7, 3-(6,7-dihydro-5H-pyrrolo [1,2-a]imidazol-2-yl)-N-methyl-4-(4-methylphenoxy)benzene-1-sulfonamide]	23.8 nM	–
CNS(=O)(=O)c1ccc(Oc2ccc(C(C)C)cc2)c(-c2cn3c(n2)CCC3)c1 [4-8, 3-(6,7-dihydro-5H-pyrrolo [1,2-a]imidazol-2-yl)-N-methyl-4-[4-(propan-2-yl)phenoxy]benzene-1-sulfonamide]	5.5 nM	–
CCc1ccc(Oc2ccc(S(=O)(=O)NC)cc2-c2cn3c(n2)CCC3)cc1 [4-9, 3-(6,7-dihydro-5H-pyrrolo [1,2-a]imidazol-2-yl)-4-(4-ethylphenoxy)-N-methylbenzene-1-sulfonamide]	15.1 nM	–
CCc1cccc(Oc2ccc(S(=O)(=O)NC)cc2-c2cn3c(n2)CCC3)c1 [4-10, 3-(6,7-dihydro-5H-pyrrolo [1,2-a]imidazol-2-yl)-4-(3-ethylphenoxy)-N-methylbenzene-1-sulfonamide]	21.6 nM	–
CNS(=O)(=O)c1ccc(Oc2ccc(F)c(F)c2)c(-c2cn3c(n2)CCC3)c1 [4-11, 4-(3,4-difluorophenoxy)-3-(6,7-dihydro-5H-pyrrolo[1,2-a]imidazol-2-yl)-N-methylbenzene-1-sulfonamide]	206 nM	–
CNS(=O)(=O)c1ccc(Oc2ccc(Cl)cc2)c(-c2cn3c(n2)CCC3)c1 [4-12, 4-(4-chlorophenoxy)-3-(6,7-dihydro-5H-pyrrolo[1,2-a]imidazol-2-yl)-N-methylbenzene-1-sulfonamide]	14.1 nM	–
CNS(=O)(=O)c1ccc(Oc2ccc(F)cc2)c(-c2cn3c(n2)CCC3)c1 [4-13, 3-(6,7-dihydro-5H-pyrrolo [1,2-a]imidazol-2-yl)-4-(4-fluorophenoxy)-N-methylbenzene-1-sulfonamide]	207 nM	–
CNS(=O)(=O)c1ccc(Oc2ccc(OC)cc2)c(-c2cn3c(n2)CCC3)c1 [4-14, 3-(6,7-dihydro-5H-pyrrolo[1,2-a]imidazol-2-yl)-4-(4-methoxyphenoxy)-N-methylbenzene-1-sulfonamide]	45.7 nM	–
CNS(=O)(=O)c1ccc(Oc2cccc(C(F)(F)F)c2)c(-c2cn3c(n2)CCC3)c1 [4-15, 3-(6,7-dihydro-5H-pyrrolo[1,2-a]imidazol-2-yl)-N-methyl-4-[3-(trifluoromethyl)phenoxy]benzene-1-sulfonamide]	22.3 nM	–
CNS(=O)(=O)c1ccc(Oc2ccc(Cl)c(C(F)(F)F)c2)c(-c2cn3c(n2)CCC3)c1 [4-16, 4-[4-chloro-3-(trifluoromethyl)phenoxy]-3-(6,7-dihydro-5H-pyrrolo[1,2-a]imidazol-2-yl)-N-methylbenzene-1-sulfonamide]	5.2 nM	–
CNS(=O)(=O)c1ccc(Oc2ccc(SC(F)(F)F)cc2)c(-c2cn3c(n2)CCC3)c1 [4-17, 3-(6,7-dihydro-5H-pyrrolo[1,2-a]imidazol-2-yl)-N-methyl-4-{4-[(trifluoromethyl)sulfanyl]phenoxy}benzene-1-sulfonamide]	14 nM	–
CNS(=O)(=O)c1ccc(Oc2ccc(S(F)(F)(F)(F)F)cc2)c(-c2cn3c(n2)CCC3)c1 [4-18, 3-(6,7-dihydro-5H-pyrrolo[1,2-a]imidazol-2-yl)-N-methyl-4-[4-(pentafluoro-lambda~6~-sulfanyl)phenoxy]benzene-1-sulfonamide]	15.2 nM	–
CNS(=O)(=O)c1ccc(Oc2ccc(C)cc2F)c(-c2cn3c(n2)CCC3)c1 [4-19, 3-(6,7-dihydro-5H-pyrrolo[1,2-a]imidazol-2-yl)-4-(2-fluoro-4-methylphenoxy)-N-methylbenzene-1-sulfonamide]	15.3 nM	–
CNS(=O)(=O)c1ccc(Oc2ccc(Cl)cc2F)c(-c2cn3c(n2)CCC3)c1 [4-20, 4-(4-chloro-2-fluorophenoxy)-3-(6,7-dihydro-5H-pyrrolo[1,2-a]imidazol-2-yl)-N-methylbenzene-1-sulfonamide]	15 nM	–
CNS(=O)(=O)c1ccc(Oc2ccc(F)cc2F)c(-c2cn3c(n2)CCC3)c1 [4-21, 4-(2,4-difluorophenoxy)-3-(6,7-dihydro-5H-pyrrolo[1,2-a]imidazol-2-yl)-N-methylbenzene-1-sulfonamide]	–	55.9 nM
CNS(=O)(=O)c1ccc(Oc2ccc(F)cc2F)c(-c2cn3c(n2)CCC3)c1 [4-22, 4-(2,4-difluorophenoxy)-3-(6,7-dihydro-5H-pyrrolo[1,2-a]imidazol-2-yl)-N-methylbenzene-1-sulfonamide]	–	25.3 nM
O=S(=O)(NCC1CC1)c1ccc(Oc2ccc(C(F)(F)F)cc2)c(-c2cnn3c2CCC3)c1 [5-1, N-(Cyclopropylmethyl)-3-(5,6-dihydro-4H-pyrrolo[1,2-b]pyrazol-3-yl)-4-(4-(trifluoromethyl)phenoxy)benzenesulfonamide]	4410 nM	–
